Results on 1 compound are retold here after paper PMC3524753, “SU11652 Inhibits tyrosine kinase activity of FLT3 and growth of MV-4-11 cells” (Journal of Hematology & Oncology, 2012).

Changes are numbered by the printed parent chain. pIC50: −log10 of the molar value.

Common to all, as to test: in vitro kinase assay with GST-FLT3S substrate, anti-phosphotyrosine immunoblot
Common to all, as to type: biochemical

For assay [1], the target named is T1, FLT3 (FMS-like tyrosine kinase 3) (Homo sapiens, UniProt P36888, D835H).
T1 construct: catalytic domain of FLT3 D835H
T1 sequence (P36888 564-993 D835H limits assumed): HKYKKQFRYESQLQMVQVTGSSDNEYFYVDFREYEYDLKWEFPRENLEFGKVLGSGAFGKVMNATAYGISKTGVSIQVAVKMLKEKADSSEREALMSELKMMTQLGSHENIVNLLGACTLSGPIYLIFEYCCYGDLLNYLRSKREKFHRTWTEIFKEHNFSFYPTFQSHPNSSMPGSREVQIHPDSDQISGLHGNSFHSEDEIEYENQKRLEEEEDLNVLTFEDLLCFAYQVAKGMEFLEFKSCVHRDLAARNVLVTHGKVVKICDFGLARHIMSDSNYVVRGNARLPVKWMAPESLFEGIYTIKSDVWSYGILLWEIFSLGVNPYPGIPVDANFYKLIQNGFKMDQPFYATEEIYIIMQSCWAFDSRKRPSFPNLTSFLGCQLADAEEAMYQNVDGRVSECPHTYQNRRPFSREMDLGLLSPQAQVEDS

Assay [2] concerns the target T2, FLT3 (FMS-like tyrosine kinase 3) (Homo sapiens, UniProt P36888).
T2 construct: catalytic domain of wild type FLT3
T2 sequence (P36888 564-993 limits assumed): T1 sequence (P36888 564-993 D835H limits assumed) with H272D

For assay [3], the target named is T3, FLT3 (FMS-like tyrosine kinase 3) (Homo sapiens, UniProt P36888, D835Y).
T3 construct: catalytic domain of FLT3 D835Y
T3 sequence (P36888 564-993 D835Y limits assumed): T1 sequence (P36888 564-993 D835H limits assumed) with H272Y

Turning to `CCN(CC)CCNC(=O)c1c(C)[nH]c(/C=C2\C(=O)Nc3ccc(Cl)cc32)c1C` [SU11652], the pIC50 was 7.49 in assay [1], roughly 8.82 in assay [2] and 7.80 in assay [3].

Broadly, the pIC50 is the IC50 on a negative log10 scale, so that one unit is a factor of ten.
